In patent US6667153B1 (priority 2000, dated 2003):
Read-outs that look alike come from different tables or passages of the source.

Key:
[1] = test system: E. coli GW2100/pTJgfp (umuC'::gfp); conditions: nutrient broth, FIG. 3
[2] = test system: E. coli GW2100/pTJgfp (umuC'-gfp fusion); conditions: for Mean fluorescence emission: 24 hours incubation
[3] = test system: arg-3 marker in E. coli strain GW2100/pTJgfp; conditions: for Mean revertant colony numbers: 37 parallel cultures, 4 day plate incubation

## COS(C)(=O)=O [MMS, methylmethane sulphonate]
[1]; MMS 13 μg/ml
  fluorescence level compared with the 0 dose control: no significant difference
[1]; MMS 1300 μg/ml
  fluorescence level (cellular toxicity): lower level of fluorescence
[1]; MMS 325 and 650 μg/ml
  fluorescence level compared with the 0 dose control: dose-dependent manner
[2]; MMS 13 μg/ml
  K.S statistic, fluorescence emission, mutagen versus the control: 3.09
[2]; MMS 13 μg/ml, 84 parallel cultures
  Mean fluorescence emission: 13.22
[2]; MMS 325 μg/ml
  K.S statistic, fluorescence emission, mutagen versus the control: 6.48
[2]; MMS 325 μg/ml, 84 parallel cultures
  Mean fluorescence emission: 36.5
[2]; MMS 325 μg/ml, 84 parallel cultures, FIG. 10
  mutagenic activity by shift in mean fluorescent output per culture: pronounced
[3]; MMS 13 μg/ml
  K.S statistic, revertant colony numbers, mutagen versus the control: 2.711
  Mean revertant colony numbers: 8.84
[3]; MMS 13 μg/ml, FIG. 8
  mutagenicity through change in culture to culture variation in mutant numbers (mean unchanged): mutagenicity is still detectable
[3]; MMS 325 μg/ml
  K.S statistic, revertant colony numbers, mutagen versus the control: 3.889
  Mean revertant colony numbers: 17.95
[3]; MMS 325 μg/ml, FIG. 8
  response in mean number of revertant colonies per culture sample: clearly positive result
